Entries after “also recorded” stand apart in the source; their conditions may differ.

Test system in one assay: not listed separately
In words: Organoleptic evaluation of cooling sensory effect of purified compounds. Type of assay: in vivo, human. As to conditions: pure / purified compound.
Turning to `CC1CC2(O)OC(C)(C)CC2C1(C)C` (stereo not drawn) [compound (15)], the cooling sensory effect entry is “moderate to strong cooling sensory effect”.

For the compound `CC1=C[C@]2(C)OC(=O)CC2C1(C)C` (stereo partly drawn) [compound (6)], the cooling sensory effect entry is given as “lacks the cooling sensory effect”.

For `CC1(C)CC2C(=O)CC(C)(O1)C2(C)C` (stereo not drawn) [(147)], the cooling sensory effect result was “no significant cooling sensory effect”.

For `CC(C)=CC1C(=O)C=C(C)C1(C)C` (stereo not drawn) [(10)], the cooling sensory effect entry is listed as “completely devoid of a cooling sensory effect”.

In the case of `CC1CCC(C(C)CO)C(=O)C1` (stereo not drawn) [(52)], the cooling sensory effect entry is listed as “potent cooling properties”.

On to `CC1=CC2(C)OC(C)(C)CC2C1(C)C` (stereo not drawn) [compound (11)], for which the cooling sensory effect result is listed as “devoid of cooling sensory properties”.

On to `CC1=CC2(O)OC(C)(C)CC2C1(C)C` (stereo not drawn) [compound (7)], for which the cooling sensory effect result was “powerful cooling effect; also recorded: very powerful cooling sensory effect”.

For the compound `CC1CC(=O)C(CC(C)(C)O)C1(C)C` (stereo not drawn) [compound (16)], the cooling sensory effect entry is on record as “weak cooling sensory effect”.

On to `CC1=CC(=O)C(CC(C)(C)O)C1(C)C` (stereo not drawn) [compound (8)], for which the cooling sensory effect entry is on record as “relatively weak cooling effect”.

In the next assay the test system is mouth. The assay is described as follows: Taste evaluation of aqueous solutions by mouth rinse (cooling sensory effect). Type of assay: in vivo, human. As to conditions: 5 ppm solution in purified water, 10 ml rinsed in mouth for 10 sec. How it is done: A 5 ppm solution of 98% pure ketone (10) in purified water was prepared. 10 ml of the solution was tasted by rinsing it in the mouth for 10 sec.
A series of solutions of a mixture of compounds (7) and (8) (approximately 60:40 ratio) were prepared in purified water for subsequent evaluation of cooling sensory effects and taste properties at different concentrations. The solutions were tasted by taking 10 ml of each sample in the mouth, rinsing the mouth for 30 seconds, and discarding the solution by spitting. The cooling sensory effects were recorded as extreme (5), strong (4), moderate (3), weak (2), or none (1), and the ranks were noted over a period of time of 4 hours. Only one sample was tasted per day. All samples were kept in a refrigerator until the taste evaluation and were brought to room temperature before tasting.
`CC(C)=CC1C(=O)C=C(C)C1(C)C` (stereo not drawn) [(10)]: the cooling sensory effect result was “no discernible cooling sensory effect”.

In another assay the test system is tongue. In words: Application of 5% solution to the tongue. As to conditions: 0.1 ml of a 5% solution applied to the tongue. Type of assay: in vivo, human. As to the method: 3.66 grams of compound (5), 10 ml of water, 5 ml of ethanol, and 1.70 g of sodium bicarbonate were stirred together at room temperature until evolution of carbon dioxide ceased (approximately 30 min). The whole was evaporated under reduced pressure at 85° C. until a constant weight was reached. The resulting transparent solid (4.4 g) was sodium ketocampholenate monohydrate.
In the case of sodium ketocampholenate monohydrate, the “duration of tingling-tangy sensation” value is listed as “about 10 min”.

The next assay relates to nasal cavity. In words: Olfactory evaluation of neat sample, cooling sensory effect on smelling. It counts as in vivo, human.
Conditions: not given
As to the method:
10 ml of 20% NaOH in water were added to the 1 ml of ethanolic solution of 120 mg of the oil resulting from the Grignard reaction, and the whole was stirred at room temperature for 1 hour.
An analytically pure sample of a lactone having formula (129) was obtained by subjecting 30 mg of the fraction 2A sample to column chromatography on silica gel using hexane:ethyl acetate 8:1 as an eluent.
Turning to `CC1CC2(C)OC(=O)CC2C1(C)C` (stereo not drawn) [(129)], the “cooling sensory effect upon smelling the sample” value is listed as “did not exhibit any significant ability to impart the cooling sensation”.

(Values after patent US20070274928A1, “Novel Cyclic Oxygenated Compounds Having Cooling, Fragrance, and Flavor Properties, and Uses Thereof” (priority 2003, published 2007).)
